# Results: ChEMBL document CHEMBL3885861, “Open TG-GATES”
# Species: Rattus norvegicus
# Test: Open TG-GATES - Regimen: Daily Repeat
# Type: toxicity, organism-based, Sprague-Dawley
# Parameters: regimen Daily Repeat, gender Male, age 6 weeks
# Details: in vivo, po, route gavage; for gamma-GTP / A/G / ALP / ALT / AST / BUN / CRE / Ca / Cl / DBIL / GLC / IP / K / LDH / Na / PL / RALB / TBIL / TC / TG / TP: tissue Plasma; for APTT / Bas / Eos / Fbg / Hb / Ht / Lym / MCH / MCHC / MCV / Mono / Neu / PT / Plat / RBC / Ret / WBC: tissue Blood; for KIDNEY_L / KIDNEY_R / KIDNEY_TOTAL: tissue Kidney; for LIVER: tissue Liver
# [1] = 3 mg/kg, […], dose level Low, time 28 day
# [2] = 10 mg/kg, 72 h, dose level Middle, time 3 day
# [3] = 10 mg/kg, […], dose level Middle, time 7 day
# [4] = 10 mg/kg, […], dose level Middle, time 14 day
# [5] = 10 mg/kg, […], dose level Middle, time 28 day
# [6] = 30 mg/kg, 72 h, dose level High, time 3 day
# [7] = 30 mg/kg, […], dose level High, time 7 day
# [8] = 30 mg/kg, […], dose level High, time 14 day
smiles,measurement,setting,value
CCN(CC)N=O [N-NITROSODIETHYLAMINE],gamma-GTP,"3 mg/kg, […], dose level Low, time 14 day",1.2 IU/L
same,A/G,[1],1.3
same,ALP,[1],685.6 IU/L
same,ALT,[1],37.6 IU/L
same,AST,[1],69.4 IU/L
same,BUN,[1],15.6 mg/dL
same,CRE,[1],0.5 mg/dL
same,Ca,[1],10.2 mg/dL
same,Cl,[1],103.2 meq/L
same,DBIL,[1],0.1 mg/dL
same,GLC,[1],203.8 mg/dL
same,IP,[1],7 mg/dL
same,K,[1],3.7 meq/L
same,LDH,[1],198.4 IU/L
same,Na,[1],141.6 meq/L
same,PL,[1],142.2 mg/dL
same,RALB,[1],3.4 g/dL
same,TBIL,[1],0.2 mg/dL
same,TC,[1],72 mg/dL
same,TG,[1],109.8 mg/dL
same,TP,[1],6 g/dL
same,gamma-GTP,[1],1.6 IU/L
same,TERMINAL_BW,[2],232.4 g
same,APTT,[2],17.9 s
same,Bas,[2],0.4%
same,Eos,[2],1%
same,Fbg,[2],224.4 mg/dL
same,Hb,[2],13.7 g/dL
same,Ht,[2],39.6%
same,Lym,[2],80.6%
same,MCH,[2],21.4 pg
same,MCHC,[2],34.5%
same,MCV,[2],62 fL
same,Mono,[2],1.8%
same,Neu,[2],15.6%
same,PT,[2],11.9 s
same,Plat,[2],144.5 x10_4/uL
same,RBC,[2],639 x10_4/ul
same,Ret,[2],5.5%
same,WBC,[2],81.6 x10_2/uL
same,KIDNEY_L,[2],1 g
same,KIDNEY_R,[2],1 g
same,KIDNEY_TOTAL,[2],2 g
same,LIVER,[2],9.9 g
same,A/G,[2],1.5
same,ALP,[2],927.8 IU/L
same,ALT,[2],33.6 IU/L
same,AST,[2],69 IU/L
same,BUN,[2],14.4 mg/dL
same,CRE,[2],0.4 mg/dL
same,Ca,[2],10.6 mg/dL
same,Cl,[2],103.4 meq/L
same,DBIL,[2],0.09 mg/dL
same,GLC,[2],186.6 mg/dL
same,IP,[2],7.5 mg/dL
same,K,[2],4.1 meq/L
same,LDH,[2],186.8 IU/L
same,Na,[2],140.8 meq/L
same,PL,[2],126.4 mg/dL
same,RALB,[2],3.3 g/dL
same,TBIL,[2],0.1 mg/dL
same,TC,[2],69 mg/dL
same,TG,[2],75 mg/dL
same,TP,[2],5.5 g/dL
same,gamma-GTP,[2],1.4 IU/L
same,TERMINAL_BW,[3],255.8 g
same,TERMINAL_BW,[4],288.9 g
same,TERMINAL_BW,[5],349 g
same,APTT,[3],19.3 s
same,Bas,[3],0.8%
same,Eos,[3],1%
same,Fbg,[3],210.6 mg/dL
same,Hb,[3],14.7 g/dL
same,Ht,[3],41.7%
same,Lym,[3],80%
same,MCH,[3],21.2 pg
same,MCHC,[3],35.2%
same,MCV,[3],60.3 fL
same,Mono,[3],2.4%
same,Neu,[3],15.8%
same,PT,[3],12.3 s
same,Plat,[3],139.2 x10_4/uL
same,RBC,[3],693.4 x10_4/ul
same,Ret,[3],3.4%
same,WBC,[3],94.2 x10_2/uL
same,APTT,[4],18.7 s
same,Bas,[4],1%
same,Eos,[4],1.2%
same,Fbg,[4],212 mg/dL
same,Hb,[4],16 g/dL
same,Ht,[4],44.8%
same,Lym,[4],75.2%
same,MCH,[4],21.4 pg
same,MCHC,[4],35.6%
same,MCV,[4],60.2 fL
same,Mono,[4],2.6%
same,Neu,[4],20%
same,PT,[4],12.8 s
same,Plat,[4],135.1 x10_4/uL
same,RBC,[4],745.2 x10_4/ul
same,Ret,[4],3%
same,WBC,[4],125 x10_2/uL
same,APTT,[5],17.1 s
same,Bas,[5],0.6%
same,Eos,[5],0.8%
same,Fbg,[5],197.8 mg/dL
same,Hb,[5],16.8 g/dL
same,Ht,[5],45.5%
same,Lym,[5],77.4%
same,MCH,[5],20.6 pg
same,MCHC,[5],36.9%
same,MCV,[5],55.9 fL
same,Mono,[5],2.4%
same,Neu,[5],18%
same,PT,[5],12.7 s
same,Plat,[5],115.5 x10_4/uL
same,RBC,[5],815 x10_4/ul
same,Ret,[5],1.9%
same,WBC,[5],126.6 x10_2/uL
same,KIDNEY_L,[3],1 g
same,KIDNEY_R,[3],1 g
same,KIDNEY_TOTAL,[3],2.1 g
same,KIDNEY_L,[4],1.1 g
same,KIDNEY_R,[4],1.1 g
same,KIDNEY_TOTAL,[4],2.3 g
same,KIDNEY_L,[5],1.2 g
same,KIDNEY_R,[5],1.2 g
same,KIDNEY_TOTAL,[5],2.3 g
same,LIVER,[3],10.2 g
same,LIVER,[4],9.6 g
same,LIVER,[5],9.3 g
same,A/G,[3],1.7
same,ALP,[3],860.8 IU/L
same,ALT,[3],36.2 IU/L
same,AST,[3],78 IU/L
same,BUN,[3],13.6 mg/dL
same,CRE,[3],0.4 mg/dL
same,Ca,[3],10.4 mg/dL
same,Cl,[3],104.2 meq/L
same,DBIL,[3],0.1 mg/dL
same,GLC,[3],190.2 mg/dL
same,IP,[3],7.4 mg/dL
same,K,[3],4 meq/L
same,LDH,[3],236.4 IU/L
same,Na,[3],141.2 meq/L
same,PL,[3],131 mg/dL
same,RALB,[3],3.3 g/dL
same,TBIL,[3],0.2 mg/dL
same,TC,[3],71.4 mg/dL
same,TG,[3],59.2 mg/dL
same,TP,[3],5.3 g/dL
same,gamma-GTP,[3],1.2 IU/L
same,A/G,[4],1.6
same,ALP,[4],1173 IU/L
same,ALT,[4],52.8 IU/L
same,AST,[4],91.4 IU/L
same,BUN,[4],15 mg/dL
same,CRE,[4],0.5 mg/dL
same,Ca,[4],10.5 mg/dL
same,Cl,[4],101.6 meq/L
same,DBIL,[4],0.1 mg/dL
same,GLC,[4],180 mg/dL
same,IP,[4],7 mg/dL
same,K,[4],3.8 meq/L
same,LDH,[4],259 IU/L
same,Na,[4],140.2 meq/L
same,PL,[4],140.2 mg/dL
same,RALB,[4],3.4 g/dL
same,TBIL,[4],0.2 mg/dL
same,TC,[4],70.4 mg/dL
same,TG,[4],67.6 mg/dL
same,TP,[4],5.5 g/dL
same,gamma-GTP,[4],2.2 IU/L
same,A/G,[5],1.7
same,ALP,[5],1261.4 IU/L
same,ALT,[5],69 IU/L
same,AST,[5],110.4 IU/L
same,BUN,[5],15 mg/dL
same,CRE,[5],0.5 mg/dL
same,Ca,[5],9.9 mg/dL
same,Cl,[5],103.6 meq/L
same,DBIL,[5],0.1 mg/dL
same,GLC,[5],165.8 mg/dL
same,IP,[5],5.9 mg/dL
same,K,[5],3.5 meq/L
same,LDH,[5],242 IU/L
same,Na,[5],140.6 meq/L
same,PL,[5],146.2 mg/dL
same,RALB,[5],3.3 g/dL
same,TBIL,[5],0.2 mg/dL
same,TC,[5],70.8 mg/dL
same,TG,[5],79.2 mg/dL
same,TP,[5],5.3 g/dL
same,gamma-GTP,[5],3.2 IU/L
same,TERMINAL_BW,[6],209.6 g
same,APTT,[6],17.1 s
same,Bas,[6],0.6%
same,Eos,[6],1.4%
same,Fbg,[6],211.6 mg/dL
same,Hb,[6],15.6 g/dL
same,Ht,[6],44.7%
same,Lym,[6],81.2%
same,MCH,[6],21.3 pg
same,MCHC,[6],34.8%
same,MCV,[6],61.1 fL
same,Mono,[6],3.4%
same,Neu,[6],12.6%
same,PT,[6],14.2 s
same,Plat,[6],134.9 x10_4/uL
same,RBC,[6],732.4 x10_4/ul
same,Ret,[6],4%
same,WBC,[6],84.6 x10_2/uL
same,KIDNEY_L,[6],1 g
same,KIDNEY_R,[6],0.9 g
same,KIDNEY_TOTAL,[6],1.9 g
same,LIVER,[6],7.6 g
same,A/G,[6],1.8
same,ALP,[6],979.2 IU/L
same,ALT,[6],64.4 IU/L
same,AST,[6],196.8 IU/L
same,BUN,[6],12.4 mg/dL
same,CRE,[6],0.4 mg/dL
same,Ca,[6],10.4 mg/dL
same,Cl,[6],103.2 meq/L
same,DBIL,[6],0.1 mg/dL
same,GLC,[6],174.6 mg/dL
same,IP,[6],7.5 mg/dL
same,K,[6],4 meq/L
same,LDH,[6],316.8 IU/L
same,Na,[6],140.4 meq/L
same,PL,[6],135.8 mg/dL
same,RALB,[6],3.4 g/dL
same,TBIL,[6],0.2 mg/dL
same,TC,[6],80.6 mg/dL
same,TG,[6],59.4 mg/dL
same,TP,[6],5.2 g/dL
same,gamma-GTP,[6],1.6 IU/L
same,TERMINAL_BW,[7],200.4 g
same,TERMINAL_BW,[8],195.1 g
same,APTT,[7],21.4 s
same,Bas,[7],1%
same,Eos,[7],1%
same,Fbg,[7],153.6 mg/dL
same,Hb,[7],17.4 g/dL
same,Ht,[7],49%
same,Lym,[7],76%
same,MCH,[7],21.1 pg
same,MCHC,[7],35.6%
same,MCV,[7],59.2 fL
same,Mono,[7],4.4%
same,Neu,[7],17.4%
same,PT,[7],19.5 s
same,Plat,[7],126.6 x10_4/uL
same,RBC,[7],827 x10_4/ul
same,Ret,[7],1.6%
same,WBC,[7],117.4 x10_2/uL
same,APTT,[8],87.2 s
same,Bas,[8],1%
same,Eos,[8],0%
same,Fbg,[8],66 mg/dL
same,Hb,[8],16.7 g/dL
same,Ht,[8],48.8%
same,Lym,[8],26%
same,MCH,[8],20.7 pg
same,MCHC,[8],34.2%
same,MCV,[8],60.5 fL
same,Mono,[8],7%
same,Neu,[8],65%
same,PT,[8],63.4 s
same,Plat,[8],112.1 x10_4/uL
same,RBC,[8],807 x10_4/ul
same,Ret,[8],3.6%
same,WBC,[8],108.1 x10_2/uL
same,KIDNEY_L,[7],0.9 g
same,KIDNEY_R,[7],0.9 g
same,KIDNEY_TOTAL,[7],1.8 g
same,KIDNEY_L,[8],1.2 g
same,KIDNEY_R,[8],1.2 g
same,KIDNEY_TOTAL,[8],2.4 g
same,LIVER,[7],4.6 g
same,LIVER,[8],2.7 g
same,A/G,[7],2
same,ALP,[7],1514 IU/L
same,ALT,[7],160.2 IU/L
same,AST,[7],315.6 IU/L
same,BUN,[7],12.6 mg/dL
same,CRE,[7],0.4 mg/dL
same,Ca,[7],9.6 mg/dL
same,Cl,[7],104.2 meq/L
same,DBIL,[7],0.7 mg/dL
same,GLC,[7],140.4 mg/dL
same,IP,[7],7 mg/dL
same,K,[7],3.9 meq/L
same,LDH,[7],465.4 IU/L
same,Na,[7],138.6 meq/L
same,PL,[7],171 mg/dL
same,RALB,[7],2.9 g/dL
same,TBIL,[7],0.9 mg/dL
same,TC,[7],109 mg/dL
same,TG,[7],27.4 mg/dL
same,TP,[7],4.4 g/dL
same,gamma-GTP,[7],9.2 IU/L
same,A/G,[8],2.8
same,ALP,[8],1357 IU/L
same,ALT,[8],206 IU/L
same,AST,[8],748 IU/L
same,BUN,[8],47 mg/dL
same,CRE,[8],0.7 mg/dL
same,Ca,[8],9.4 mg/dL
same,Cl,[8],90 meq/L
same,DBIL,[8],4.2 mg/dL
same,GLC,[8],61 mg/dL
same,IP,[8],9.2 mg/dL
same,K,[8],4.5 meq/L
same,LDH,[8],983 IU/L
same,Na,[8],130 meq/L
same,PL,[8],245 mg/dL
same,RALB,[8],2.2 g/dL
same,TBIL,[8],5.1 mg/dL
same,TC,[8],231 mg/dL
same,TG,[8],88 mg/dL
same,TP,[8],3 g/dL
same,gamma-GTP,[8],16 IU/L
